Source: a melting point compilation (Tetko et al.; mined from patent text by program, amines drawn as free bases though some values may be those of a salt)

| Compound | melting point [°C] |
| --- | --- |
| CCC(C)CNC(=O)c1ccc2cccc(Cc3ccc(C(=O)NS(=O)(=O)c4ccccc4C)cc3OC)c2c1 (centres undefined) | 204 |
| N#CC1OC(=O)c2c(F)cccc21 (centres undefined) | 117 to 120 |
| Cn1cc(C2=C(c3cn4c5c(cccc35)CCC4)C(=O)OC2=O)c2ccccc21 | 217 to 219 |
| CC(C)(C)OC(=O)C(O)c1ccc2c(c1)OC(c1ccccc1)(c1ccccc1)O2 (centres undefined) | 153 to 154 |
| COC(=O)c1nc(-c2ccc(Cl)c(OC)c2F)nc(N)c1/C=C/Br | 171 to 173 |
| O=C(O)COc1ccc(CCc2ccc(-c3ccc(C(F)(F)F)cc3)cc2)c2c1CCC2 | 188 to 190 |
| CC(=CCO)c1ccc(-c2ccc(Br)cc2)cc1 | 145 to 148 |
| CCCCOCC(O)CN1C(=O)NC(=O)C(CC)(c2ccccc2)C1=O (centres undefined) | 92 |
| CC(=O)c1ccc(S(=O)(=O)C[N+](=O)[O-])cc1 | 94 to 95 |
| CCOc1ccc(-c2nc(-c3ccc(SC(=O)N(C)C)c(C(=O)OC)c3)cs2)cc1OCC | 108 to 109 |
| COc1ccc2[nH]c(S(=O)Cc3ncc(C)c(N4CCCCC4)c3Cl)nc2c1 (centres undefined) | 151 to 152 |
| Nc1nc(Nc2ccccc2)c2[nH]cnc2n1 | 126 |
| N#CCCNC(=S)C1=CC(CF)(CF)Oc2cc(Cl)c(Cl)cc21 | 154 to 155 |
| OCCN=C1c2ccccc2CCc2ccccc21 | 93 to 94 |
| CCOC(=O)c1cnc(SC)nc1NCc1ccc(OC)c(Cl)c1 | 82 to 83 |
| COc1cccc2c1OC(C(=O)O)CO2 (centres undefined) | 131 to 132 |
| OCCCC#Cc1cnc(-c2ccccc2)c(-c2ccccc2)n1 | 88 to 90 |
| CN1C(=O)[C@H](NC(=O)c2cc3ccccc3[nH]2)N=C(c2ccccc2)c2ccccc21 | 167 to 177 |
| S=C(NCN1CCOCC1)C(c1ccccc1)c1ccccn1 (centres undefined) | 128 to 130 |
| CC(=C1SCCCS1)c1cccnc1 | 34 to 36 |
| CCCCCCCCC1N(C)c2cccc3cccc(c23)N1C | 62 to 63 |
| O=C(CN1CCN(c2ccccc2)CC1)N1CCC(CNCc2ccco2)(c2cccc(C(F)(F)F)c2)CC1 | 119 |
| Cn1ncc2c1-c1c(Oc3ccc(-c4ccc(F)cc4)nc3)sc(C(N)=O)c1CC2 | 236 to 237 |
| c1cnc(NCCN2CCC(=C3c4ccccc4CCn4ncnc43)CC2)nc1 | 162 |
| CCCc1nc(C)nc(NN)c1Cc1ccc(-c2ccccc2C#N)cc1 | 156 |

| Compound | melting point [°C] |
| --- | --- |
| COc1cc2c(=O)c(C#N)c[nH]c2cc1F | 147 to 149 |
| CN(C)c1ccc(C=CC(C=C(c2ccc(N(C)C)cc2)c2ccc(N(C)C)cc2)C=C(c2ccc(N(C)C)cc2)c2ccc(N(C)C)cc2)cc1 | 78 to 82 |
| CCCC1COC(c2cc(F)c(C(F)(F)Oc3ccc(-c4cc(F)c(OC(F)(F)F)c(F)c4)c(F)c3)c(F)c2)OC1 (centres undefined) | 61 |
| Cn1nc(-c2ccccc2O)c2sccc21 | 112 to 113 |
| COc1nc2cc([N+](=O)[O-])cc(C=O)c2nc1OC | 147 to 149 |
| COc1ccc(S(=O)(=O)C2(C(=O)O)CCN(Cc3ccc(-c4ccccn4)cc3)CC2)cc1 | 217 |
| CCS(=O)(=O)c1ccc(C(CC2CCCC2)C(=O)NC(=O)NC)cc1 (centres undefined) | 200 to 201 |
| CN1C(=O)[C@@H](CN2CCCCC2)C[C@H]1c1ccc(-c2ccccc2Cl)s1 | 73 to 75 |
| CCC(CC)NC(=O)c1ccc(-c2scc(-c3ccccc3Cl)c2CC(=O)NC(=N)NCCCO)cc1 | 109 to 110 |
| CCCN(CCCN1CCc2cc(OC)c(OC)cc2CC1=O)CCc1ccc(OC)c(OC)c1 | 56 to 70 |
| O=C(c1cccc2[nH]ccc12)N1CCOCC1 | 127 to 129 |
| CC(C)(C)c1cc(C(=NO)c2ccccc2)cc(C(C)(C)C)c1O | 151 |
| Cn1ncc(C(=O)O)c1C(=O)Nc1ccc2nc(N3CCOCC3)nn2c1 | 294 |
| O=C(CCc1cccc2[nH]ccc12)c1ccccc1OCCN1CCCCC1 | 78 |
| FC(F)(F)c1cc(-c2ccc(Cl)cc2)nc(-n2cnc(I)c2)n1 | 258 |
| N#CN=C(NCCSCc1nccs1)NCCSCc1nccs1 | 66 to 68 |
| CC(=O)ON1C(C)(C)CC(OC(=O)c2cccc(C(=O)OC3CC(C)(C)N(OC(C)=O)C(C)(C)C3)c2)CC1(C)C | 98 to 101 |
| O=S(=O)(OCC(F)(F)F)c1ccc2ccccc2c1 | 72.7 |
| CCOC(=O)C1CCCN(C(=O)C2CCC(Nc3nccc(-n4ccc5c(OCCCS(C)(=O)=O)cccc54)n3)CC2)C1 (centres undefined) | 175 to 177 |
| COc1ccc2c(c1)CCC1C2CCC2(C)C=CCC12 (centres undefined) | 164 to 168 |
| Cc1cc(Br)cc(C)c1N[N+](=O)[O-] | 129 to 131 |
| CN(C)S(=O)(=O)c1ccccc1S(=O)(=O)NC(=O)Nc1nc(F)cc(OC(F)(F)F)n1 | 167 to 169 |
| O=c1ccc2ccc(OCCCCl)cc2o1 | 100 to 102 |
| CN1OC(COc2ccccc2)CC1(Cn1ccnc1)c1ccc2ccccc2c1 (centres undefined) | 176 to 178 |
